Reference: patent publication US20090036444A1, “5-5-Membered fused heterocyclic compound and use thereof as HCV polymerase inhibitor” (priority 2003, published 2009)
Where a name gives a salt, the structure may show the parent alone. Read-outs that look alike come from different tables or passages of the source.

Tests used:
[1] = target: T1, HCV polymerase H544 1a 3X (UniProt P27958); assay: Assay of enzyme (HCV polymerase) inhibitory activity, H544 1a 3X; type: biochemical
T1 construct: fused on or other part: 6 His tag at the C-terminus, for the BK (1b) enzyme

[2] = target: T2, HCV polymerase H544 1b 3X (Hepatitis C virus genotype 1b, UniProt P26663); assay: Assay of enzyme (HCV polymerase) inhibitory activity, H544 1b 3X; type: biochemical, HCV BK strain
T2 construct: a region encoding NS5B (J Virol 1991 March, 65(3), 1105-13, 544 amino acids after deletion of 47 amino acids on the C-terminal); 6 His (C); made in house; host or cells: Escherichia coli
T2 sequence (P26663 2420-2963): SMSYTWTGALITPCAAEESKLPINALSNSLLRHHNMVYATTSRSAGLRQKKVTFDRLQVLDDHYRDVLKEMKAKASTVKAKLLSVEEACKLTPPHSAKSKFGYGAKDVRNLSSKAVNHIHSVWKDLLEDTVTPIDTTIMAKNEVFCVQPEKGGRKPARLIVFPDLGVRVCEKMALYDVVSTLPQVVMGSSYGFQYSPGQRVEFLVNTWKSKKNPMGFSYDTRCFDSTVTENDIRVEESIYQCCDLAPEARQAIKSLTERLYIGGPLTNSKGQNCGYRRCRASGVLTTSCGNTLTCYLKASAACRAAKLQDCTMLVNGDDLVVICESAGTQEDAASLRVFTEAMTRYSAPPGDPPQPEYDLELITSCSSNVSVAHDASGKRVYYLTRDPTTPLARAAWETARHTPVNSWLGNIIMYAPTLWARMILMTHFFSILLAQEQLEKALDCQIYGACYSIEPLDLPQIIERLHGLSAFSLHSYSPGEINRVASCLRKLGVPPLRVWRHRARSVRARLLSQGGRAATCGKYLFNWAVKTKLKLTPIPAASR
Excerpt: The evaluation of the HCV polymerase inhibitory activity of the compound of the present invention is explained in the following. This polymerase is an enzyme coded for by the non-structural protein region called NS5B on the genome RNA of HCV (EMBO J., 15:12-22, 1996).
Using, as a template, a cDNA clone corresponding to the full length genome RNA of HCV BK strain obtained from the blood of a patient with hepatitis C, a region encoding NS5B (J Virol 1991 March, 65(3), 1105-13, 544 amino acids after deletion of 47 amino acids on the C-terminal) was amplified by PCR. The objective gene was prepared by adding a 6 His tag {base pair encoding 6 continuous histidine (His)} to the 3′ end thereof and transformed to Escherichia coli. The Escherichia coli capable of producing the objective protein was cultured. The obtained cells were suspended in a buffer solution and crushed in a microfluidizer. The supernatant was obtained by centrifugation and applied to various column chromatographys {mono-S, Sephacryl S-200 (Pharmacia)}, inclusive of metal chelate chromatography, to give a standard enzyme product.
Using a synthetic primer designed based on the sequence of HCV genomic 3′ untranslated region, a DNA fragment (148 bp) containing polyU and 3′X sequence was entirely synthesized and cloned into plasmid pBluescript SK II (+) (Stratagene). The cDNA encoding full length NS5B, which was prepared in i) above, was digested with restriction enzyme KpnI to give a cDNA fragment containing the nucleotide sequence of from the restriction enzyme cleavage site to the termination codon. This cDNA fragment was inserted into the upstream of 3′ untranslated region of the DNA in pBluescript SK II(+) and ligated. The about 450 bp inserted DNA sequence was used as a template in the preparation of substrate RNA. This plasmid was cleaved immediately after the 3′X sequence, linearized and purified by phenol-chloroform treatment and ethanol precipitation to give DNA.
RNA was synthesized (37° C., 3 hr) by run-off method using this purified DNA as a template, a promoter of pBluescript SK II(+), MEGAscript RNA synthesis kit (Ambion) and T7 RNA polymerase. DNase I was added and the mixture was incubated for 1 hr. The template DNA was removed by decomposition to give a crude RNA product. This crude product was treated with phenol-chloroform and purified by ethanol precipitation to give the objective substrate RNA.
This RNA was applied to formaldehyde denaturation agarose gel electrophoresis to confirm the quality thereof and preserved at −80° C.
A test substance (compound of the present invention) and a reaction mixture (30 μl) having the following composition were reacted at 25° C. for 90 min. 10% Trichloroacetic acid at 4° C. and 1% sodium pyrophosphate solution (150 μl) were added to this reaction mixture to stop the reaction. The reaction mixture was left standing in ice for 15 min to insolubilize RNA. This RNA was trapped on a glass filter (Whatman GF/C and the like) upon filtration by suction. This filter was washed with a solution containing 1% trichloroacetic acid and 0.1% sodium pyrophosphate, washed with 90% ethanol and dried. A liquid scintillation cocktail (Packard) was added and the radioactivity of RNA synthesized by the enzyme reaction was measured on a liquid scintillation counter.
The HCV polymerase inhibitory activity (IC50) of the compound of the present invention was calculated from the values of radioactivity of the enzyme reaction with and without the test substance.
The results are shown in Table 18, wherein each symbol means that IC50 falls within the following range.
Reaction mixture: HCV polymerase (0.5 μg/ml) obtained in i), substrate RNA (5 μg/ml) obtained in ii), ATP (50 μM), GTP (50 μM), CTP (50 μM), UTP (2 μM), [5,6-^3H] UTP (46 Ci/mmol (Amersham), 1 μCi) 20 mM Tris-HCl (pH 7.5), EDTA (1 mM), MgCl2 (5 mM), NaCl (50 mM), DTT (1 mM), BSA (0.01%)

[3] = 25° C., 90 min, [5,6-3H]UTP incorporation, read-out: H544 1a 3X IC50
[4] = read-out: H544 1a 3X IC50, 25° C., 90 min, [5,6-3H]UTP incorporation

SMILES	IC50 [1, 3] [nM]	IC50 [2] [nM]	IC50 [1, 4] [nM]
O=C(O)c1cc2c(s1)c(C1CCCCC1)c(-c1ccc(OCc3ccccc3)cc1)n2CC(=O)N1CCC(N2CCCCC2)CC1 [Example 54, 5-(4-benzyloxyphenyl)-4-[2-(1,4′-bipiperidinyl-1′-yl)-2-oxoethyl]-6-cyclohexyl-4H-thieno[3,2-b]pyrrole-2-carboxylic acid hydrochloride]	< 100	< 100	–
Cn1c(-c2ccc(OCc3cc(N)ccc3N3CCN(S(C)(=O)=O)CC3)cc2)c(C2CCCCC2)c2sc(C(=O)O)cc21 [Example 19, 5-(4-[5-amino-2-(4-methanesulfonylpiperazin-1-yl)benzyloxy]phenyl)-6-cyclohexyl-4-methyl-4H-thieno[3,2-b]pyrrole-2-carboxylic acid hydrochloride]	< 100	< 100	–
CN(C)C(=O)Cn1c(-c2ccc(OC3CCCN(C(=O)OC(C)(C)C)C3)cc2)c(C2CCCCC2)c2sc(C(=O)O)cc21 (centres unmarked) [Example 37, 5-[4-(1-tert-butoxycarbonylpiperidin-3-yloxy)phenyl]-6-cyclohexyl-4-dimethylcarbamoylmethyl-4H-thieno[3,2-b]pyrrole-2-carboxylic acid]	< 100	< 100	–
Cn1c(-c2ccc(OCc3cc(S(C)(=O)=O)ccc3N3CCOCC3)cc2)c(C2CCCCC2)c2sc(C(=O)O)cc21 [Example 23, 6-cyclohexyl-5-[4-(5-methanesulfonyl-2-morpholinobenzyloxy)phenyl]-4-methyl-4H-thieno[3,2-b]pyrrole-2-carboxylic acid hydrochloride]	< 100	< 100	–
CC(C)C(=O)Nc1ccc(N2CCOCC2)c(COc2ccc(-c3c(C4CCCCC4)c4sc(C(=O)O)cc4n3C)cc2)c1 [Example 29, 6-cyclohexyl-5-[4-(5-isobutyrylamino-2-morpholinobenzyloxy)phenyl]-4-methyl-4H-thieno[3,2-b]pyrrole-2-carboxylic acid hydrochloride]	< 100	< 100	–
O=C(O)c1cc2c(s1)c(C1CCCCC1)c(-c1ccc(OCc3ccccc3)cc1)n2CCN1CCOCC1 [Example 47, 5-(4-benzyloxyphenyl)-6-cyclohexyl-4-(2-morpholinoethyl)-4H-thieno[3,2-b]pyrrole-2-carboxylic acid]	100 to 1000	100 to 1000	–
COc1ccc(-c2c(C3CCCCC3)c3sc(C(=O)O)cc3n2CC(=O)N2CCOCC2)cc1 [Example 25, 6-cyclohexyl-5-(4-methoxyphenyl)-4-morpholinocarbonylmethyl-4H-thieno[3,2-b]pyrrole-2-carboxylic acid]	100 to 1000	< 100	–
CCOC(=O)c1cc2c(s1)c(C1CCCCC1)c(-c1ccc(OCc3cc(N4CCCC4=O)ccc3N3CCOCC3)cc1)n2C [Example 24, ethyl 6-cyclohexyl-4-methyl-5-{4-[2-morpholino-5-(2-oxopyrrolidin-1-yl)benzyloxy]phenyl}-4H-thieno[3,2-b]pyrrole-2-carboxylate hydrochloride]	100 to 1000	100 to 1000	–
Cn1c(-c2ccc(OCc3ccccc3)cc2)c(C2CCCCC2)c2sc(C(=O)O)cc21 [Example 12, 5-(4-benzyloxyphenyl)-6-cyclohexyl-4-methyl-4H-thieno[3,2-b]pyrrole-2-carboxylic acid]	100 to 1000	100 to 1000	–
COc1ccc(-c2c(C3CCCCC3)c3sc(C(=O)O)cc3n2CC(=O)N2CCC(N(C)C)CC2)cc1 [Example 27, 6-cyclohexyl-4-(4-dimethylaminopiperidino)carbonylmethyl-5-(4-methoxyphenyl)-4H-thieno[3,2-b]pyrrole-2-carboxylic acid]	< 100	< 100	–
Cn1c(-c2ccc(OCc3cc(N4CCCC4=O)ccc3N3CCN(S(C)(=O)=O)CC3)cc2)c(C2CCCCC2)c2sc(C(=O)O)cc21 [Example 18, 6-cyclohexyl-5-{4-[2-(4-methanesulfonylpiperazin-1-yl)-5-(2-oxopyrrolidin-1-yl)benzyloxy]phenyl}-4-methyl-4H-thieno[3,2-b]pyrrole-2-carboxylic acid hydrochloride]	< 100	< 100	–
CN(C(=O)CN1CCOCC1)c1ccc(N2CCOCC2)c(COc2ccc(-c3c(C4CCCCC4)c4sc(C(=O)O)cc4n3C)cc2)c1 [Example 57, 6-cyclohexyl-4-methyl-5-(4-{5-[N-methyl-N-(2-morpholinoacetyl)amino]-2-morpholinobenzyloxy}phenyl)-4H-thieno[3,2-b]pyrrole-2-carboxylic acid dihydrochloride]	–	< 100	< 100
O=C(O)c1cc2nc(-c3ccc(OCc4cc(N5CCCC5=O)ccc4-c4ccc(Cl)cc4)cc3)n(C3CCCCC3)c2s1 [Example 3, 2-{4-[4′-chloro-4-(2-oxopyrrolidin-1-yl)biphenyl-2-ylmethoxy]phenyl}-3-cyclohexyl-3H-thieno[2,3-d]imidazole-5-carboxylic acid hydrochloride]	–	< 100	100 to 1000
CCN1CCN(C(=O)Cn2c(-c3ccc(OC)cc3)c(C3CCCCC3)c3sc(C(=O)O)cc32)CC1 [Example 26, 6-cyclohexyl-4-(4-ethylpiperazin-1-yl)carbonylmethyl-5-(4-methoxyphenyl)-4H-thieno[3,2-b]pyrrole-2-carboxylic acid]	100 to 1000	< 100	–
CN(C)CC(=O)N(C)c1ccc(N2CCOCC2)c(COc2ccc(-c3c(C4CCCCC4)c4sc(C(=O)O)cc4n3C)cc2)c1 [Example 43, 6-cyclohexyl-5-(4-{5-[N-(2-dimethylaminoacetyl)-N-methylamino]-2-morpholinobenzyloxy}phenyl)-4-methyl-4H-thieno[3,2-b]pyrrole-2-carboxylic acid dihydrochloride]	–	< 100	< 100
O=C(O)c1cc2c(s1)c(C1CCCCC1)c(-c1ccc(OCc3ccccc3)cc1)n2CCN1CCN(C2CCCCC2)CC1 [Example 53, 5-(4-benzyloxyphenyl)-6-cyclohexyl-4-[2-(4-cyclohexylpiperazin-1-yl)ethyl]-4H-thieno[3,2-b]pyrrole-2-carboxylic acid dihydrochloride]	–	100 to 1000	100 to 1000
CN(C)C(=O)Cn1c(-c2ccc(OCc3ccccc3)cc2)c(C2CCCCC2)c2sc(C(=O)O)cc21 [Example 14, 5-(4-benzyloxyphenyl)-6-cyclohexyl-4-dimethylcarbamoylmethyl-4H-thieno[3,2-b]pyrrole-2-carboxylic acid]	< 100	< 100	–
O=C(Cn1c(-c2ccc(OCc3ccccc3)cc2)c(C2CCCCC2)c2sc(C(=O)O)cc21)Nc1ccc(N2CCOCC2)cc1 [Example 51, 5-(4-benzyloxyphenyl)-6-cyclohexyl-4-[(4-morpholinophenylcarbamoyl)methyl]-4H-thieno[3,2-b]pyrrole-2-carboxylic acid hydrochloride]	< 100	< 100	–
Cn1c(-c2ccc(OCc3cc(N4CCCC4=O)ccc3N3CCOCC3)cc2)c(C2CCCCC2)c2sc(C(=O)O)cc21 [Example 15, 6-cyclohexyl-4-methyl-5-{4-[2-morpholino-5-(2-oxopyrrolidin-1-yl)benzyloxy]phenyl}-4H-thieno[3,2-b]pyrrole-2-carboxylic acid hydrochloride]	< 100	< 100	–
